Laboratory results reported in patent US20040259948A1, “Reciprocal regulation of inflammation and lipid metabolism by liver X receptors” (priority 2003, published 2004).

Legend:
[1] = tested on: Thioglycolate-elicited peritoneal macrophages; test: Macrophage response to E. coli infection: iNOS mRNA and NO production; format: cell-based, murine; conditions: 18 h, pretreated with 1 μM ligand, real-time quantitative PCR
Description: Thioglycolate-elicited peritoneal macrophages were infected in vitro with Escherichia coli. After 18 hours, expression of inducible nitric oxide synthase (iNOS) mRNA and nitric oxide (NO) production were assessed. […] Cells were then infected with E. coli (A, B) or treated with 100 ng/ml LPS(C, D, E) as indicated. After 18 h, NO production was determined using a colorimetric assay (A, D), or mRNA levels were determined using real-time quantitative PCR assays (B, C, E).
Thioglycolate-elicited peritoneal macrophages were cultured in RPMI containing 10% fetal bovine serum (FBS). […] For ligand treatments, cells were in cultured medium supplemented with 5% lipoprotein-deficient serum (LPDS) and ligands for 18 h before stimulation. […] NO production was determined spectrophotometrically (Castrillo, A. et al. 2000 Mol Cell Biol 20:1692-1698).
Total RNA was extracted using Trizol reagent (Life Technologies, Inc.). […] Real-time quantitative PCR (TaqMan) analysis was performed using an Applied Biosystems 7700 sequence detector.

[2] = tested on: Thioglycolate-elicited murine peritoneal macrophages; test: LPS-stimulated macrophages: NO production, iNOS and ABCA1 mRNA; format: cell-based; conditions: for iNOS mRNA: 100 ng/ml LPS, 18 h, pretreated with 1 μM ligand, real-time quantitative PCR
Description: To investigate the role of LXRs in host defense, the influence of LXR agonists on macrophage responses to bacterial pathogens was tested. Thioglycolate-elicited peritoneal macrophages were infected in vitro with Escherichia coli. After 18 hours, expression of inducible nitric oxide synthase (iNOS) mRNA and nitric oxide (NO) production were assessed. […] This repression occurs over the same concentration range needed to induce the established LXR target gene ATP-binding cassette transporter A1 (ABCA1). A, LXR agonist inhibits nitrite production in response to bacterial infection. […] Cells were then infected with E. coli (A, B) or treated with 100 ng/ml LPS(C, D, E) as indicated. After 18 h, NO production was determined using a colorimetric assay (A, D), or mRNA levels were determined using real-time quantitative PCR assays (B, C, E). […] The inhibitory effect of LXR agonists on iNOS expression was dose-dependent and occurred over the same range of concentration as that required to induce ATP-binding cassette transporter A1 (ABCA1) (FIGS. 1D and E).
The anti-inflammatory activity of LXR ligands can be separated from the induction of lipid metabolism genes such as ABCA1. Murine peritoneal macrophages were treated with LPS to induce iNOS gene expression (FIG. 8A) and were assayed for ABCA1 mRNA by real time qPCR (FIG. 8B). NOx production was measured by colorimetric assay. […] The identification of LXR agonists with only anti-inflammatory activity should greatly increase the usefulness of such compounds as therapeutic agents, because they lack the unwanted side effects on lipid metabolism such as elevation of triglyceride levels.
Cell culture and transfections. Thioglycolate-elicited peritoneal macrophages were cultured in RPMI containing 10% fetal bovine serum (FBS). RAW 264.7 cells were cultured in DMEM containing 10% FBS. For ligand treatments, cells were in cultured medium supplemented with 5% lipoprotein-deficient serum (LPDS) and ligands for 18 h before stimulation. Bacterial infection in vitro was performed as described (Chen, L. M. et al. 1996 Mol Microbiol 21:1101-1115). Transient transfections of RAW 264.7 cells were performed in triplicate in 48-well plates using Superfect reagent (Life Technologies). After transfection, cells were incubated in medium containing 10% LPDS and the indicated ligands for 18 h before stimulation with LPS for an additional 18 h. Luciferase activity was normalized to β-galactosidase activity. NO production was determined spectrophotometrically (Castrillo, A. et al. 2000 Mol Cell Biol 20:1692-1698).
RNA and protein analysis. Total RNA was extracted using Trizol reagent (Life Technologies, Inc.). Northern blot analysis was carried out as described using radiolabeled cDNA probes (Tontonoz, P. et al. 1998 Cell 93:241-252). Real-time quantitative PCR (TaqMan) analysis was performed using an Applied Biosystems 7700 sequence detector. Two-step real-time PCR was performed as described (Joseph, S. B. et al. 2002 J Biol Chem 277:11019-11025). The primers and probes used are as follows: […]

[3] = tested on: human peripheral blood mononuclear cells; test: TNF-induced gene expression in human peripheral blood mononuclear cells; format: cell-based; conditions: TNF 6 hours; real time qPCR
Description: (§1) Activation of LXR by synthetic ligands inhibits inflammatory gene expression in multiple human cell types (FIG. 7A-C). TNFα plays a role in the induction of inflammatory mediators in during inflammation. Cells were treated for 6 hours with TNF as indicated and gene expression was measured by real time qPCR.

[4] = tested on: human aortic endothelial cells; test: TNF-induced gene expression in human aortic endothelial cells; format: cell-based; conditions: TNF 6 hours; real time qPCR
Description: as §1

[5] = tested on: C57B1/6 mice; test: Murine model of irritant contact dermatitis (TPA-treated ear); format: in vivo; conditions: topical 20 μl of 10 mM at 45 min and 4 h post-TPA; 18 h; relative to vehicle-treated ear
Description: The effects of LXR ligands in both acute and chronic inflammatory contexts were evaluated. First, the effects of LXR agonists in a murine model of irritant contact dermatitis (Sheu, M. Y. et al. 2002 J Invest Dermatol 118:94-101) were studied. Ears of C57B1/6 mice (n=5 per group) were treated topically with 12-O-tetradecanoylphorbol-13-acetate (TPA) (left ear) or with vehicle (right ear). […] Thickness and weight of 6-mm punch biopsies were determined for each group after 18 h TPA treatment and are presented relative to vehicle-treated ear. […] Analysis of hematoxylin and eosin (H&E) stained sections of the TPA-treated ears confirmed a reduction in edema and inflammatory infiltrate by LXR agonist. Thus, two structurally unrelated LXR agonists have anti-inflammatory activity in a model of cutaneous inflammation.
Animals. Mice on a mixed background (C57B1/6 and 129v) and Apoe^−/− mice on a C57B1/6 background were maintained on standard chow. […] Irritant contact dermatitis was induced as described (Sheu, M. Y. et al. 2002 J Invest Dermatol 118:94-101). Briefly, 10 μl of 0.03% 12-O-tetradecanoylphorbol-13-acetate (TPA) in acetone was applied to the left ears of male mice. The right ears were treated with vehicle alone. […] After 18 h of TPA treatment, the thickness and weight of 6-mm punch biopsies were determined. Statistical analysis was performed using Student's t-test. Experiments were conducted in accordance of the Animal Research Committee of the University of California, Los Angeles.

[6] = tested on: Thioglycolate-elicited murine peritoneal macrophages; test: IL-1β- or TNFα-induced inflammatory gene expression in macrophages; format: cell-based; conditions: pretreated 18 h; IL-1β or TNFα (50 ng/ml); real-time quantitative PCR
Description: Next, the influence of LXR agonists on inflammatory gene expression induced by IL-1β and TNFα, which have been implicated in the pathogenesis of atherosclerosis, was tested. […] Gene expression was detected by real-time quantitative PCR assays. […] Total RNA was isolated from individual aortas and gene expression was measured by real-time quantitative PCR. P<0.05 for MMP-9 (*) and P<0.01 (**) for ABCA1. […] Thus, LXR agonist reduces expression of an established inflammatory mediator in the vessel wall. Cell culture and transfections. Thioglycolate-elicited peritoneal macrophages were cultured in RPMI containing 10% fetal bovine serum (FBS). RAW 264.7 cells were cultured in DMEM containing 10% FBS. For ligand treatments, cells were in cultured medium supplemented with 5% lipoprotein-deficient serum (LPDS) and ligands for 18 h before stimulation. Bacterial infection in vitro was performed as described (Chen, L. M. et al. 1996 Mol Microbiol 21:1101-1115). Transient transfections of RAW 264.7 cells were performed in triplicate in 48-well plates using Superfect reagent (Life Technologies). After transfection, cells were incubated in medium containing 10% LPDS and the indicated ligands for 18 h before stimulation with LPS for an additional 18 h. Luciferase activity was normalized to β-galactosidase activity. NO production was determined spectrophotometrically (Castrillo, A. et al. 2000 Mol Cell Biol 20:1692-1698). RNA and protein analysis. Total RNA was extracted using Trizol reagent (Life Technologies, Inc.). Northern blot analysis was carried out as described using radiolabeled cDNA probes (Tontonoz, P. et al. 1998 Cell 93:241-252). Real-time quantitative PCR (TaqMan) analysis was performed using an Applied Biosystems 7700 sequence detector. Two-step real-time PCR was performed as described (Joseph, S. B. et al. 2002 J Biol Chem 277:11019-11025). The primers and probes used are as follows: […]

[7] = tested on: human smooth muscle cells; test: TNF-induced gene expression in human smooth muscle cells; format: cell-based; conditions: TNF 6 hours; real time qPCR
Description: as §1

[8] = tested on: Thioglycolate-elicited murine peritoneal macrophages; test: Expression of NF-κB target genes in LPS-treated macrophages (northern blot, real-time quantitative PCR); format: cell-based
Description: LPS is an established inducer of the NF-κB signaling pathway in macrophages. Several genes inhibited by LXR ligands in the array studies above are established targets of NF-κB. To further investigate the role of LXRs in NF-κB-dependent gene expression, we analyzed expression of NF-κB target genes in peritoneal macrophages from wild-type mice. […] Expression of NF-κB target genes was determined by northern blot (A) or by real-time quantitative PCR assays (B). 36B4 was used as a control for RNA loading and integrity. […] RNA and protein analysis. Total RNA was extracted using Trizol reagent (Life Technologies, Inc.). Northern blot analysis was carried out as described using radiolabeled cDNA probes (Tontonoz, P. et al. 1998 Cell 93:241-252). Real-time quantitative PCR (TaqMan) analysis was performed using an Applied Biosystems 7700 sequence detector. Two-step real-time PCR was performed as described (Joseph, S. B. et al. 2002 J Biol Chem 277:11019-11025). The primers and probes used are as follows: […]

Compound: Cc1cc(SCc2sc(-c3ccc(C(F)(F)F)cc3)nc2C)ccc1OCC(=O)O [GW1516]
- iNOS mRNA [1]: minimal effects
- iNOS mRNA [2]: minimal effects

Compound: O=S(=O)(c1ccccc1)N(CC(F)(F)F)c1ccc(C(O)(C(F)(F)F)C(F)(F)F)cc1 [T1317, N-(2,2,2-trifluoro-ethyl)-N-[4-(2,2,2-trifluoro-1-hydroxy-1-trifluoromethyl-ethyl)-phenyl]-benzenesulfonamide]
- TNF-induced gene expression [3]: inhibited
- TNF-induced gene expression [4]: inhibited
- ear thickness [5]: reduced
- ear weight (6-mm punch biopsies) [5]: reduced
- induction of IL-6 expression [6]: inhibit
- induction of iNOS expression [6]: inhibit
- TNF-induced gene expression [7]: inhibited
- receptor-independent induction of IL-6 [8]: modest receptor-independent induction
- receptor-independent induction of MCP-1 [8]: modest receptor-independent induction
- activation of ABCA1 gene expression, T1317 compared with GW3965 ([2]; increasing doses, real time qPCR, FIG. 8B): more effective activator

Compound: GW7647
- iNOS mRNA [1]: minimal effects
- iNOS mRNA [2]: minimal effects
